Patent US20220411378A1, “SMALL MOLECULES POLYMERASE INHIBITORS” (GEORGIA STATE UNIVERSITY RESEARCH FOUNDATION, INC., priority 2019, published 2022)
“Also recorded” adds a separate entry of the source. Read-outs that look alike come from different tables or passages of the source.

What was measured:
recHPIV3-JS-NanoLuc = assay: microbe, parasite or virus in culture; assay type: cell-based
[1] = system: different immortalized cell lines; assay: Cell proliferation / cytotoxicity in cultured immortalized cell lines; assay type: cell-based
HPIV1 = assay type: cell-based
SeV [2] = assay type: cell-based
MeV = assay type: cell-based
[3] = system: canine distemper virus (CDV); assay type: cell-based
HPIV2 = assay type: cell-based
RSV = assay type: cell-based
influenza A viruses = assay type: cell-based
[4] = system: clinical isolates of HPIV3; assay type: cell-based
[5] = system: clinical isolates HPIV3-9R4 and HPIV3-10L3; assay: microbe, parasite or virus in culture; assay type: cell-based
MeV-Edm RdRP = MeV-Edm RdRP (Measles virus, UniProt P12576); assay type: cell-based
HPIV3-JS RdRP = assay type: cell-based
CDV-Onderstepoort RdRP = CDV-Onderstepoort RdRP (Canine distemper virus, UniProt P24658); assay type: cell-based
RSV-derived minigenome = RSV-derived minigenome (Human respiratory syncytial virus A, UniProt P28887); assay type: cell-based
NiV L = NiV L (Nipah virus, UniProt Q997F0); assay: cell-based
purified MeV L (L1708) = purified MeV L (L1708) (Measles virus, UniProt Q9WMB3); assay: biochemical; assay type: binding
[6] = system: MeV L with resistance mutations (LS869P, LI1009F, LY1106S, LS869P/Y942H); assay type: binding
[7] = molecular target: purified MeV P-L proteins (Measles virus, UniProt Q9WMB3); assay type: biochemical
[8] = system: HPIV3 primary transcription; assay type: cell-based
[9] = system: MeV primary transcription; assay type: cell-based
HPIV3 = assay: microbe, parasite or virus in culture; assay type: cell-based
HPIV1 isolate 5F6 = assay: organism not typed; assay type: cell-based
in vitro [10] = assay type: in vitro ADME; conditions: plasma
Description: (§1) To determine stability in plasma, GHP-88309 was incubated in triplicate in pooled human or CD-1 mouse plasma (BioIVT) in glass tubes in a 37° C. shaker-incubator (150 rpm). Procaine and benfluorex served as positive controls and were analyzed in parallel. […] To determine stability in liver microsomes, GHP-88309 was incubated in triplicate in glass tubes in 50 mM Tris-HCl (pH 7.5) buffer with 8 mM MgCl2, 25 μg/mL alamethicin, Phase I and Phase II cofactors (NADPH regenerating system (NRS) and 2 mM UDPGA, respectively) and 0.5 mg total protein pooled mixed gender human liver microsomes (BioIVT) or pooled CD-1 mouse liver microsomes (Xenotech) in a 37° C. shaker incubator (150 rpm). Verapamil served as Phase I positive control, negative controls lacked cofactors and contained 2% (w/v) NaHCO3 in water instead of NRS. Aliquots were taken after 0, 15, […], 30, 60 and 120 minutes and processed as outlined above.

[11] = Stability in human liver microsomes; assay type: in vitro ADME
Description: as §1

[12] = Stability in mouse liver microsomes; assay type: in vitro ADME
Description: as §1

[13] = Pharmacokinetics analysis in mice; assay type: in vivo
SeV [14] = system: SeV; design: species or system mice; conditions: mouse, in vivo
HPIV3-infected HBTECs = assay type: cell-based, human
in vitro [15] = conditions: African green monkey
in vitro [16] = conditions: human

For NC(=O)c1c(F)cccc1-c1cccc2cnccc12 [GHP-88309, 2-fluoro-6-(5-isoquinolyl)benzamide], which EC50 (recHPIV3-JS-NanoLuc) is on record?
The EC50 was 0.59 to 1.16 µM.

What about the EC50 (recHPIV3-JS-NanoLuc; Human respirovirus 3) of the same compound?
The EC50 was under 1 µM.

What about the EC50 (recHPIV3-JS-NanoLuc; Human respirovirus 3, read-out: active concentrations against recHPIV3-JS-NanoLuc) of the same compound?
The EC50 was 0.4 to 0.78 µM.

And the “effect on cell proliferation” value ([1]; concentration range up to 100 μM)?
Its value is “No toxicity was detectable”.

What about the cytotoxicity ([1]; multi-day incubation, up to 1 mM, infected cells highest 300 μM) of the same compound?
Its cytotoxicity is “no cytotoxicity”.

What about the inhibitory activity (HPIV1) of the same compound?
The inhibitory activity was “Inhibitory activity”.

What about the “potency (EC50) against clinical isolates” value (HPIV1) of the same compound?
The value was “low-micromolar to submicromolar”.

And the inhibitory activity (SeV [2])?
Its inhibitory activity is “Inhibitory activity”.

And the inhibitory activity (MeV)?
The inhibitory activity was “Inhibitory activity”.

And the “potency (EC50) against clinical isolates” value (MeV)?
Its value is “low-micromolar to submicromolar”.

What about the inhibitory activity [3] of the same compound?
The inhibitory activity was “Inhibitory activity”.

What about the inhibitory activity (HPIV2) of the same compound?
The inhibitory activity was “not inhibited”.

What about the inhibitory activity (RSV) of the same compound?
Its inhibitory activity is “not inhibited”.

What about the inhibitory activity (influenza A viruses) of the same compound?
Its inhibitory activity is “not inhibited”.

And the “potency (EC50) against clinical isolates” value [4]?
Its value is “low-micromolar to submicromolar”.

And the EC50 ([5]; Human respirovirus 3, HPIV3-9R4 on HBTEC cultures)?
The EC50 was 0.07 µM.

And the EC50 ([5]; Human respirovirus 3, HPIV3-10L3 on HBTEC cultures)?
Its EC50 is 0.08 µM.

What about the “inhibition of viral RdRP activity” value (MeV-Edm RdRP) of the same compound?
Its value is “specific inhibition”.

What about the “inhibition of viral RdRP activity” value (HPIV3-JS RdRP) of the same compound?
Its value is “specific inhibition”.

What about the “inhibition of viral RdRP activity” value (CDV-Onderstepoort RdRP) of the same compound?
The value was “specific inhibition”.

What about the “inhibition of viral RdRP activity” value (RSV-derived minigenome) of the same compound?
Its value is “not affected”.

What about the EC50 (NiV L) of the same compound?
Its EC50 is 314 µM.

What about the Kd (purified MeV L (L1708)) of the same compound?
Its Kd is 6.2 µM.

What about the “difference between EC50 and KD concentrations” value (purified MeV L (L1708)) of the same compound?
Its value is about 10 fold.

What about the binding [6] of the same compound?
Its binding is “drastically reduced”.

What about the “RNA elongation (3′ extension) after back-priming” value [7] of the same compound?
Its value is “does not block; also recorded: did not block RNA elongation”.

What about the “de novo RNA synthesis (initiation at the promoter)” value [7] of the same compound?
Its value is “inhibits; also recorded: dose-dependent inhibition”.

What about the “viral mRNA amounts during primary transcription” value [8] of the same compound?
Its value is “dose-dependent reduction”.

What about the “viral mRNA amounts during primary transcription” value [9] of the same compound?
The value was “dose-dependent reduction”.

What about the EC50 (HPIV3) of the same compound?
Its EC50 is 0.105 µM.

What about the “sterilizing concentration in the basolateral chamber” value (HPIV3) of the same compound?
Its value is 10 µM.

What about the EC50 (HPIV3; Human respirovirus 3) of the same compound?
The EC50 was 0.09 µM.

And the EC50 (HPIV1 isolate 5F6)?
Its EC50 is 0.28 µM.

And the half-life (in vitro [10]; CD-1, mouse)?
Its half-life is over 15 h.

What about the half-life (in vitro [10]; human) of the same compound?
Its half-life is over 15 h.

What about the half-life ([11]; both sexes, human, pooled human liver microsomes, pH 7.5, human liver microsomes, read-out: half-life (t1/2)) of the same compound?
Its half-life is over 15 h.

What about the “half-life (t1/2)” value ([11]; human liver microsomes) of the same compound?
The value was 15.3 h.

What about the half-life ([12]; CD-1, mouse, pooled CD-1 mouse liver microsomes, pH 7.5, mouse liver microsomes, read-out: half-life (t1/2)) of the same compound?
Its half-life is over 15 h.

What about the “half-life (t1/2)” value ([12]; mouse liver microsomes) of the same compound?
Its value is over 24 h.

What about the “effect of multi-day dosing on PK properties” value ([13]; 150 mg/kg oral, single vs multi dosing) of the same compound?
Its value is “did not significantly (P>0.82) alter”.

And the tolerability ([13]; 5-day multi-dose oral, b.i.d. 150 mg/kg)?
Its tolerability is “well tolerated; also recorded: no signs of biotoxicity”.

And the organ concentrations ([13]; all soft tissues incl. lung, 60 minutes after plasma Cmax, single oral 150 mg/kg)?
The organ concentrations was 70 to 246 nmol/g.

What about the concentration at 11.5 h ([13]; female, 129x1/SvJ, mouse, plasma, 150 mg/kg oral b.i.d., 4-day treatment period, read-out: drug plasma concentration at trough) of the same compound?
The concentration at 11.5 h was about 34 µM.

What about the bioavailability ([13]; female, 129x1/SvJ, mouse, plasma, single-dose oral vs i.v.) of the same compound?
The bioavailability was about 90%.

And the “sustained drug plasma concentrations” value ([13]; single oral dose 150 mg/kg)?
Its value is over 30 µM.

What about the “IFN-β induction in lung tissue” value (SeV [14]) of the same compound?
Its value is “significantly lower”.

What about the “IL12b expression in lung tissue” value (SeV [14]) of the same compound?
Its value is “increased”.

And the body temperature (SeV [14])?
Its body temperature is “prevented hypothermia”.

And the body weight (SeV [14])?
Its body weight is “alleviated body weight losses”.

And the clinical signs (SeV [14])?
The clinical signs was “significantly alleviated”.

What about the “expression of inflammatory markers (IL-6, TNF, Acod1)” value (SeV [14]) of the same compound?
Its value is “significantly decreased”.

And the “humoral anti-SeV response of recoverees” value (SeV [14])?
The value was “robust humoral anti-SeV response”.

And the lung histopathology (SeV [14])?
The lung histopathology was “no statistically significant (P=0.62) pathological changes”.

And the “lung inflammation and cellular infiltrates” value (SeV [14])?
The value was “alleviated”.

What about the outcome of rechallenge (SeV [14]) of the same compound?
Its outcome of rechallenge is “complete survival without development of clinical signs”.

What about the survival (SeV [14]) of the same compound?
The survival was “All treated animals survived; also recorded: complete protection”.

What about the “survival after primary infection” value (SeV [14]) of the same compound?
The value was “all animals survived”.

What about the “virus load in lungs” value (SeV [14]) of the same compound?
Its value is “significantly reduced”.

And the “virus load in trachea” value (SeV [14])?
The value was “significantly reduced”.

What about the IFN-β levels (HPIV3-infected HBTECs) of the same compound?
The IFN-β levels was “did not reduce”.

What about the ISG expression (HPIV3-infected HBTECs) of the same compound?
The ISG expression was “enhanced”.

And the “TEER and tight junction organization” value (3D-ALI-HBTEC)?
The value was “unchanged”.

What about the CC50 (in vitro [15]) of the same compound?
Its CC50 is over 20 µM.

What about the CC50 (in vitro [16]) of the same compound?
Its CC50 is 1000 µM.
